Data published in US20250101041A1, “POSITIVE ALLOSTERIC MODULATORS OF THE MUSCARINIC ACETYLCHOLINE RECEPTOR M4” (Vanderbilt University, priority 2022, published 2025).
pEC50: −log10 of the molar value.

Target: T1, human mAChR M4 (Homo sapiens, UniProt P08173)
T1 construct: expressed in transfected cells; host or cells: CHO-K1 (American Type Culture Collection), stably expressing hM4 and Gqi5
T1 sequence (P08173 1-479): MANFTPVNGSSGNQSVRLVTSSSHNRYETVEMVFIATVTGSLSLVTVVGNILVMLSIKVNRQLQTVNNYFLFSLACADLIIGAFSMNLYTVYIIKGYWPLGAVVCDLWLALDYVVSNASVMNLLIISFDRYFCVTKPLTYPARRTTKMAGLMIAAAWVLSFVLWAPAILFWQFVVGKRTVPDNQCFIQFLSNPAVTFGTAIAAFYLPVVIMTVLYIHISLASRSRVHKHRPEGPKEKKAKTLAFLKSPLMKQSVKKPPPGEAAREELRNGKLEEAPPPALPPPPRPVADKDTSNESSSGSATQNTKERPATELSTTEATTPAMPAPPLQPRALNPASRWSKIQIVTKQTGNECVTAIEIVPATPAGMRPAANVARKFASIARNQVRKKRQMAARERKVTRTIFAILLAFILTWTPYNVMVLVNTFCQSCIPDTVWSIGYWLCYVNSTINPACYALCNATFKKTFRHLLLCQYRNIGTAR
Assay: mAChR M4 cell-based functional assay: calcium mobilization (Fluo-4, FDSS), potentiation of EC20 acetylcholine response in hM4-Gqi5 CHO-K1 cells
Design: Emax: dose or concentration left out as unconfirmed
Conditions: for Emax at 30 µM: CHO-K1, % ACh maximum at 30 μM; for Emax at 30 µM / pEC50: human M4; for pEC50: potentiation of EC20 acetylcholine response, calcium mobilization
Method in brief: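 Readout is the fluorescence-ratio rise at 1 Hz on FDSS, with PAM activity taken as concentration-dependent enhancement of the EC20 acetylcholine response, fitted four-parameter for EC50/Emax. hM4-Gqi5 CHO-K1 cells carried Fluo-4 AM dye; test compounds (11 points, 1:3) preceded EC20 acetylcholine additions at 144 s and 230 s.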

Row | Emax at 30 µM | pEC50 | SMILES | Emax (CHO-K1)
1 | 87% | 6.44 | Cc1cc2nccc(=O)n2nc1N1CCc2ncc(N3CCO[C@H](C)C3)cc2C1 [Compound 2-2, (R)-8-methyl-7-(3-(2-methylmorpholino)-7,8-dihydro-1,6-naphthyridin-6(5H)-yl)-4H-pyrimido[1,2-b]pyridazin-4-one] | –
2 | 105% | 6.16 | Cc1ncc(CNc2cnc3c(c2)CN(c2nn4c(=O)ccnc4cc2C)CC3)o1 [Compound 2-129, 8-methyl-7-(3-(((2-methyloxazol-5-yl)methyl)amino)-7,8-dihydro-1,6-naphthyridin-6(5H)-yl)-4H-pyrimido[1,2-b]pyridazin-4-one] | –
3 | 88% | 6.12 | Cc1cc(=O)n2nc(N3CCc4ncc(-c5cnccc5Cl)cc4C3)c(C)c(C)c2n1 [Compound 1-126, 7-(3-(4-chloropyridin-3-yl)-7,8-dihydro-1,6-naphthyridin-6(5H)-yl)-2,8,9-trimethyl-4H-pyrimido[1,2-b]pyridazin-4-one] | –
4 | 61% | 5.61 | Cc1c(C2CC2)c(N2CCc3ncc(C(F)(F)F)cc3C2)nn2c(=O)ccnc12 [Compound 1-111, 8-cyclopropyl-9-methyl-7-(3-(trifluoromethyl)-7,8-dihydro-1,6-naphthyridin-6(5H)-yl)-4H-pyrimido[1,2-b]pyridazin-4-one] | –
5 | 100% | 6.44 | Cc1cc(=O)n2nc(N3CCc4ncc(-c5ccccc5C)cc4C3)c(C)cc2n1 [Compound 1-237, 2,8-dimethyl-7-(3-(o-tolyl)-7,8-dihydro-1,6-naphthyridin-6(5H)-yl)-4H-pyrimido[1,2-b] pyridazin-4-one] | –
6 | 77% | 6.81 | COc1ccncc1-c1cnc2c(c1)CN(c1nn3c(=O)cc(C(F)F)nc3c(C)c1C)CC2 [Compound 1-190, 2-(difluoromethyl)-7-(3-(4-methoxypyridin-3-yl)-7,8-dihydro-1,6-naphthyridin-6(5H)-yl)-8,9-dimethyl-4H-pyrimido[1,2-b]pyridazin-4-one] | –
7 | 80% | 6.47 | CCn1cc(-c2cnc3c(c2)CN(c2nn4c(=O)cc(C)nc4cc2C)CC3)cn1 [Compound 1-219, 7-(3-(1-ethyl-1H-pyrazol-4-yl)-7,8-dihydro-1,6-naphthyridin-6(5H)-yl)-2,8-dimethyl-4H-pyrimido[1,2-b]pyridazin-4-one] | –
8 | 94% | 6.32 | Cc1cc2nc(C(=O)NC3CN(CC(F)(F)F)C3)cc(=O)n2nc1N1CCc2ncc(C(F)(F)F)cc2C1 [Compound 1-55, 8-methyl-4-oxo-N-(1-(2,2,2-trifluoroethyl)azetidin-3-yl)-7-(3-(trifluoromethyl)-7,8-dihydro-1,6-naphthyridin-6(5H)-yl)-4H-pyrimido[1,2-b]pyridazine-2-carboxamide] | –
9 | 92% | 6.99 | Cc1cc(=O)n2nc(N3CCc4ncc(-c5ccc(F)nc5)cc4C3)c(C)c(C)c2n1 [Compound 1-204, 7-(3-(6-fluoropyridin-3-yl)-7,8-dihydro-1,6-naphthyridin-6(5H)-yl)-2,8,9-trimethyl-4H-pyrimido[1,2-b]pyridazin-4-one] | –
10 | 66% | 6.74 | Cc1cc2nccc(=O)n2nc1N1CCc2ncc(Nc3cncc(Cl)c3)cc2C1 [Compound 2-142, 7-(3-((5-chloropyridin-3-yl)amino)-7,8-dihydro-1,6-naphthyridin-6(5H)-yl)-8-methyl-4H-pyrimido[1,2-b]pyridazin-4-one] | –
11 | 64% | 5.60 | Cc1cc2nccc(=O)n2nc1N1CCc2ncc(Nc3cnccn3)cc2C1 [Compound 2-127, 8-methyl-7-(3-(pyrazin-2-ylamino)-7,8-dihydro-1,6-naphthyridin-6(5H)-yl)-4H-pyrimido[1,2-b]pyridazin-4-one] | –
12 | 82% | 6.86 | Cc1cc(=O)n2nc(N3CCc4ncc(-c5cnccc5C)cc4C3)c(C)cc2n1 [Compound 1-214, 2,8-dimethyl-7-(3-(4-methylpyridin-3-yl)-7,8-dihydro-1,6-naphthyridin-6(5H)-yl)-4H-pyrimido[1,2-b] pyridazin-4-one] | –
13 | 88% | 6.15 | Cc1cc(=O)n2nc(N3CCc4ncc(-c5cncc(F)c5)cc4C3)c(C)c(C)c2n1 [Compound 1-134, 7-(3-(5-fluoropyridin-3-yl)-7,8-dihydro-1,6-naphthyridin-6(5H)-yl)-2,8,9-trimethyl-4H-pyrimido[1,2-b]pyridazin-4-one] | –
14 | 87% | 5.74 | Cc1cc2nccc(=O)n2nc1N1CCc2ncc(NCC3CCCOC3)cc2C1 (stereo not shown) [Compound 2-86, 8-methyl-7-(3-(((tetrahydro-2H-pyran-3-yl)methyl)amino)-7,8-dihydro-1,6-naphthyridin-6(5H)-yl)-4H-pyrimido[1,2-b]pyridazin-4-one] | –
15 | 73% | 6.58 | Cc1c(N2CCc3ncc(C(F)(F)F)cc3C2)nn2c(=O)ccnc2c1C1CC1 [Compound 1-113, 9-cyclopropyl-8-methyl-7-(3-(trifluoromethyl)-7,8-dihydro-1,6-naphthyridin-6(5H)-yl)-4H-pyrimido[1,2-b]pyridazin-4-one] | –
16 | 77% | 6.07 | Cc1cc(=O)n2nc(N3CCc4ncc(N5CC6CC5CO6)cc4C3)c(C)cc2n1 (stereo not shown) [Compound 2-42, 7-(3-(2-oxa-5-azabicyclo[2.2.1]heptan-5-yl)-7,8-dihydro-1,6-naphthyridin-6(5H)-yl)-2,8-dimethyl-4H-pyrimido[1,2-b]pyridazin-4-one] | –
17 | 94% | 7.70 | COCc1cc(=O)n2nc(N3CCc4ncc(-c5cnccn5)cc4C3)c(C)c(C)c2n1 [Compound 1-261, 2-(methoxymethyl)-8,9-dimethyl-7-(3-(pyrazin-2-yl)-7,8-dihydro-1,6-naphthyridin-6(5H)-yl)-4H-pyrimido[1,2-b]pyridazin-4-one] | –
18 | 89% | 6.89 | Cc1c(N2CCc3ncc(-c4cnn(C)c4)cc3C2)nn2c(=O)ccnc2c1C [Compound 1-62, 8,9-dimethyl-7-(3-(1-methyl-1H-pyrazol-4-yl)-7,8-dihydro-1,6-naphthyridin-6(5H)-yl)-4H-pyrimido[1,2-b]pyridazin-4-one] | –
19 | 115% | 7.72 | Cc1cc2nc(C(F)(F)F)cc(=O)n2nc1N1CCc2ncc(N3CCCn4nccc43)cc2C1 [Compound 2-11, 7-(3-(6,7-dihydropyrazolo[1,5-a]pyrimidin-4(5H)-yl)-7,8-dihydro-1,6-naphthyridin-6(5H)-yl)-8-methyl-2-(trifluoromethyl)-4H-pyrimido[1,2-b]pyridazin-4-one] | –
20 | 82% | 7.57 | Cc1cc2nc(C)c(C)c(=O)n2nc1N1CCc2ncc(N3CCCn4nccc43)cc2C1 [Compound 2-13, 7-(3-(6,7-dihydropyrazolo[1,5-a]pyrimidin-4(5H)-yl)-7,8-dihydro-1,6-naphthyridin-6(5H)-yl)-2,3,8-trimethyl-4H-pyrimido[1,2-b]pyridazin-4-one] | –
21 | 95% | 6.75 | COCc1cc(=O)n2nc(N3CCc4ncc(-c5ccc(C)nc5)cc4C3)c(C)c(C)c2n1 [Compound 1-110, 2-(methoxymethyl)-8,9-dimethyl-7-(3-(6-methylpyridin-3-yl)-7,8-dihydro-1,6-naphthyridin-6(5H)-yl)-4H-pyrimido[1,2-b]pyridazin-4-one] | –
22 | 76% | 7.42 | Cc1cc2nc(C3CC3)cc(=O)n2nc1N1CCc2ncc(C(F)(F)F)cc2C1 [Compound 1-27, 2-cyclopropyl-8-methyl-7-(3-(trifluoromethyl)-7,8-dihydro-1,6-naphthyridin-6(5H)-yl)-4H-pyrimido[1,2-b]pyridazin-4-one] | –
23 | 88% | 6.58 | Cc1cc(=O)n2nc(N3CCc4ncc(-c5cnc(F)cc5C)cc4C3)c(C)cc2n1 [Compound 1-209, 7-(3-(6-fluoro-4-methylpyridin-3-yl)-7,8-dihydro-1,6-naphthyridin-6(5H)-yl)-2,8-dimethyl-4H-pyrimido[1,2-b]pyridazin-4-one] | –
24 | 87% | 7.15 | COCc1c(N2CCc3ncc(-c4ccc(C)nc4)cc3C2)nn2c(=O)ccnc2c1C [Compound 1-271, 8-(methoxymethyl)-9-methyl-7-(3-(6-methylpyridin-3-yl)-7,8-dihydro-1,6-naphthyridin-6(5H)-yl)-4H-pyrimido[1,2-b] pyridazin-4-one] | –
25 | 92% | 6.87 | Cc1ccc(-c2cnc3c(c2)CN(c2nn4c(=O)c(C)cnc4c(C)c2C)CC3)cn1 [Compound 1-100, 3,8,9-trimethyl-7-(3-(6-methylpyridin-3-yl)-7,8-dihydro-1,6-naphthyridin-6(5H)-yl)-4H-pyrimido[1,2-b]pyridazin-4-one] | –

Row | SMILES | Emax at 30 µM | pEC50 | Emax (CHO-K1)
26 | Cc1ccc2c(n1)CCN(c1nn3c(=O)ccnc3cc1C)C2 [Compound 1-448, 8-methyl-7-(2-methyl-7,8-dihydro-1,6-naphthyridin-6(5H)-yl)-4H-pyrimido[1,2-b] pyridazin-4-one] | – | 5.64 | 66%
